In the kinase profiling compilation of Christmann-Franck et al. (2016):

What was measured:
Test in all cases: KINOMEscan competition binding
STK16 (human) = STK16 (human) (UniProt O75716)
MAP2K5 (human) = MAP2K5 (human) (UniProt Q13163)
[1] = tested on: FLT3 (human), P36888 [ITD]; settings: compound 1.0 µM
RIPK2 (human) = RIPK2 (human) (UniProt O43353)
PDGFRB (human) = PDGFRB (human) (UniProt P09619)
MAP3K1 (human) = MAP3K1 (human) (UniProt Q13233)
RPS6KA6 KD2 (human) = RPS6KA6 KD2 (human) (UniProt Q9UK32)
Chain of RPS6KA6 KD2 (human) (Q9UK32 whole entry, looked up): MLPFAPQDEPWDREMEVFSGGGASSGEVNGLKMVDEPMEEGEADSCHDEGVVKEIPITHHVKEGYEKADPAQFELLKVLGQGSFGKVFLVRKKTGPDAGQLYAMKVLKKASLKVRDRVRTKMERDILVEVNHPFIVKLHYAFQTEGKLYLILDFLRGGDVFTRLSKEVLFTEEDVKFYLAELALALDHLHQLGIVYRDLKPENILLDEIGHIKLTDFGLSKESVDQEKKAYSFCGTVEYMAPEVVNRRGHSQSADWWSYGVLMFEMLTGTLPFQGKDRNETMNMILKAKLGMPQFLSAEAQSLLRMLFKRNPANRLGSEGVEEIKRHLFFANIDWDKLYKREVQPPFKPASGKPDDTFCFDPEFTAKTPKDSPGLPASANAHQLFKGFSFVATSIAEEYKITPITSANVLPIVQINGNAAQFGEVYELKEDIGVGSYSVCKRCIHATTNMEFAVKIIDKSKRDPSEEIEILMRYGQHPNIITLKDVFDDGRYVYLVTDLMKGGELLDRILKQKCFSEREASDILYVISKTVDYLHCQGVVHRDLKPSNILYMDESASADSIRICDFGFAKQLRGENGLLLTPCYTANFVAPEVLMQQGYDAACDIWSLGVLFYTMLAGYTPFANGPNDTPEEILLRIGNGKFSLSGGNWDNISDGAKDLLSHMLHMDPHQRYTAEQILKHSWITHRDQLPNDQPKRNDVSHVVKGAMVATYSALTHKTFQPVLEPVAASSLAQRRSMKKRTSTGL

CDK4 CCND3 (human) = CDK4 CCND3 (human) (UniProt P11802+P30281); settings: compound 1.0 µM
Chain of CDK4 CCND3 (human) (P11802 whole entry, looked up): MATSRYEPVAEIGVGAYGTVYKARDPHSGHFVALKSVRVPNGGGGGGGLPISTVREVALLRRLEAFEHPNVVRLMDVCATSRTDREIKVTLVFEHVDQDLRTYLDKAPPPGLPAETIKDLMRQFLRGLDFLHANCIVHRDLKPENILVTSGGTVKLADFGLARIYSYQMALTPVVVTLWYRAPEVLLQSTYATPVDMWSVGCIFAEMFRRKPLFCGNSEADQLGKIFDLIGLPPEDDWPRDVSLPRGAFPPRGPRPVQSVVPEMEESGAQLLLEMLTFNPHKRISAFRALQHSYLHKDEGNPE
Chain of CDK4 CCND3 (human) (P30281 whole entry, looked up): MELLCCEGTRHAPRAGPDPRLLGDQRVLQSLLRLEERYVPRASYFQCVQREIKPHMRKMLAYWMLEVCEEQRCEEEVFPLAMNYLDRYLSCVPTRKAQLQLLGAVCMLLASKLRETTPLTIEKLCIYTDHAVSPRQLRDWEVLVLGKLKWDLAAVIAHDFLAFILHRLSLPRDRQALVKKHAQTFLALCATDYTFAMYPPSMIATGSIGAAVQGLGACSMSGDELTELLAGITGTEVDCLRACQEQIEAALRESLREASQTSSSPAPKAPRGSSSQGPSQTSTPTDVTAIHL

PKN3 (M.tuberculosis) = PKN3 (M.tuberculosis) (UniProt Q6P5Z2); settings: compound 1.0 µM
Chain of PKN3 (M.tuberculosis) (Q6P5Z2 whole entry, looked up): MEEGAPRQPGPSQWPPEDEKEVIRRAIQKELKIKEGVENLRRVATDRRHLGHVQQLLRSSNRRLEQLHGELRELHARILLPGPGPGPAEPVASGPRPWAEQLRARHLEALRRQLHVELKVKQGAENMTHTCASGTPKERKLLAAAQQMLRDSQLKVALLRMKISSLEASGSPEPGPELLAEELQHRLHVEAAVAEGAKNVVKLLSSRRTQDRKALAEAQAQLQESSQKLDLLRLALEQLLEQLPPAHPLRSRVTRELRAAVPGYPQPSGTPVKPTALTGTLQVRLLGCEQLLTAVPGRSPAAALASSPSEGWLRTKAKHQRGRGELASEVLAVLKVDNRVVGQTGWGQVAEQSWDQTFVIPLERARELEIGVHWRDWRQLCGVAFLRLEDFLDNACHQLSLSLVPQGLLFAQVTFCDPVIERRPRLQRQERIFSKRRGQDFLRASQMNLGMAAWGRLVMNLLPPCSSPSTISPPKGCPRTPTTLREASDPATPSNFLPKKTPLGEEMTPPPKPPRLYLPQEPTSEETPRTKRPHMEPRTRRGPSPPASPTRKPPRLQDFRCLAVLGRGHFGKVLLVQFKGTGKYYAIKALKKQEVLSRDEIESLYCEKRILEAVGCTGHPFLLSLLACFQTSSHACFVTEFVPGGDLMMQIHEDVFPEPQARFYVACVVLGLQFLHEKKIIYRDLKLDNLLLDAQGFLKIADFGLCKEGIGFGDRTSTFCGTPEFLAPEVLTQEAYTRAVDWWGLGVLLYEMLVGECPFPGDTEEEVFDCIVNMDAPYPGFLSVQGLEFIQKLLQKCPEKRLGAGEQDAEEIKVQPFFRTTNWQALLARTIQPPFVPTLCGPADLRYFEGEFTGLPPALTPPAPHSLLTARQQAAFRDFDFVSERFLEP

RET (human) = RET (human) (UniProt P07949)
CDK4 CCND1 (human) = CDK4 CCND1 (human) (UniProt P11802+P24385); settings: compound 1.0 µM
Chain of CDK4 CCND1 (human) (P11802 whole entry, looked up): as the sequence (P11802 whole entry, looked up) above
Chain of CDK4 CCND1 (human) (P24385 whole entry, looked up): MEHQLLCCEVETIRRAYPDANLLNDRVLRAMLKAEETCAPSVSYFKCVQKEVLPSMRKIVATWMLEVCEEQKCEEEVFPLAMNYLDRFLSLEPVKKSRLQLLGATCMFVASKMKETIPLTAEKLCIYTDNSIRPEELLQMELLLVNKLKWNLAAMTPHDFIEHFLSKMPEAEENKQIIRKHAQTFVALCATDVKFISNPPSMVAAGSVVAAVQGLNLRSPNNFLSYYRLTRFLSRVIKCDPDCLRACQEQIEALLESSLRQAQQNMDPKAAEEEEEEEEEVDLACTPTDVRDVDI

CPK1 (P.falciparum) = settings: compound 1.0 µM

Chain of MAP3K1 (human) (Q13233 whole entry, looked up): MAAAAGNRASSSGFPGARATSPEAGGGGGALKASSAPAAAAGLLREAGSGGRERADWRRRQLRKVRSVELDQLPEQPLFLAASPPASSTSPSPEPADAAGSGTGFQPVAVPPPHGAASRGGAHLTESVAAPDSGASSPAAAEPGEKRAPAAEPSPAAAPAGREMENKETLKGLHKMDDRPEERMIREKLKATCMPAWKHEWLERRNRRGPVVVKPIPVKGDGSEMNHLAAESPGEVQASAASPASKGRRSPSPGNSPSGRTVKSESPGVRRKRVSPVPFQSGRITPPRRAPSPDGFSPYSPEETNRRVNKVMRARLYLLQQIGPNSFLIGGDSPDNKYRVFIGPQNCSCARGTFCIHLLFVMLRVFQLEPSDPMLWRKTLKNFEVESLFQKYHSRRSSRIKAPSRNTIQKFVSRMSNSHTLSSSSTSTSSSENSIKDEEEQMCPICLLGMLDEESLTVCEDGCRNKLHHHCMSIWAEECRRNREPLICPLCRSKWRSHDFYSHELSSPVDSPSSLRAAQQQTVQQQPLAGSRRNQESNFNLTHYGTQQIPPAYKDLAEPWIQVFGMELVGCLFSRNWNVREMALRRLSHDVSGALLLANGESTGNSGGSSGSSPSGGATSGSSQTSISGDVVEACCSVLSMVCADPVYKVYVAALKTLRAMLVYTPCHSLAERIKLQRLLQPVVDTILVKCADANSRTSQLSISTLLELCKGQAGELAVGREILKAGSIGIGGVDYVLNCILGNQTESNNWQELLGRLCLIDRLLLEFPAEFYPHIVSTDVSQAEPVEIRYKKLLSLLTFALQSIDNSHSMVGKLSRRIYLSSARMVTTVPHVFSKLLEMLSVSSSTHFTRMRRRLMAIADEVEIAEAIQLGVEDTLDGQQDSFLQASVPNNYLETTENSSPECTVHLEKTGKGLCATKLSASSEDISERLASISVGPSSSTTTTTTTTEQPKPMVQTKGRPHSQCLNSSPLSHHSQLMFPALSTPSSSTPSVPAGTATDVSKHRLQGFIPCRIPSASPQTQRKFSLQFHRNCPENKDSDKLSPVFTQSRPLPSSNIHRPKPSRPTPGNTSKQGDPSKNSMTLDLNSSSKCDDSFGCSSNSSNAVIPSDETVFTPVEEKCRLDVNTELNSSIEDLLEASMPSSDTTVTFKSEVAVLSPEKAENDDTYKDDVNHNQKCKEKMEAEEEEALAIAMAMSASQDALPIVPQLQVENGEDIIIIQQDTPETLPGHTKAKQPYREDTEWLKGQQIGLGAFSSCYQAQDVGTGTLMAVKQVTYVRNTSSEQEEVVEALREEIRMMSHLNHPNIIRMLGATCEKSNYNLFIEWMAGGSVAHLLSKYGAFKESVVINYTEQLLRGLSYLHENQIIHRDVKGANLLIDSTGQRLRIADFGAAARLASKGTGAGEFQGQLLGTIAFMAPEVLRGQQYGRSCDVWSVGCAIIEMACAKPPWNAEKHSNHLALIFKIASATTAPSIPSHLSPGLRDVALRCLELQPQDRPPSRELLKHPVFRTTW
Chain of MAP2K5 (human) (Q13163 whole entry, looked up): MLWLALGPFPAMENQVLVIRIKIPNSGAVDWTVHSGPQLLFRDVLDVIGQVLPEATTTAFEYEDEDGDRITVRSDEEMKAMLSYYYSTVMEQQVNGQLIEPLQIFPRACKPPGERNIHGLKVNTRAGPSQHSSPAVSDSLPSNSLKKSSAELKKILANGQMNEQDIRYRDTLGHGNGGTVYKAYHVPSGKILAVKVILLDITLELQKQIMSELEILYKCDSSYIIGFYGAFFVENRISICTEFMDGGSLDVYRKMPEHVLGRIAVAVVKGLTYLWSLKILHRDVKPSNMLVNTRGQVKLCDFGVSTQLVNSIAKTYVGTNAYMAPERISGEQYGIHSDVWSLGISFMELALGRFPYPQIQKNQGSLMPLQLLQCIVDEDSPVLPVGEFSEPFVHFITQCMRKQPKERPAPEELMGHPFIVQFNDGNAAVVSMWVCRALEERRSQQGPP
Chain of STK16 (human) (O75716 whole entry, looked up): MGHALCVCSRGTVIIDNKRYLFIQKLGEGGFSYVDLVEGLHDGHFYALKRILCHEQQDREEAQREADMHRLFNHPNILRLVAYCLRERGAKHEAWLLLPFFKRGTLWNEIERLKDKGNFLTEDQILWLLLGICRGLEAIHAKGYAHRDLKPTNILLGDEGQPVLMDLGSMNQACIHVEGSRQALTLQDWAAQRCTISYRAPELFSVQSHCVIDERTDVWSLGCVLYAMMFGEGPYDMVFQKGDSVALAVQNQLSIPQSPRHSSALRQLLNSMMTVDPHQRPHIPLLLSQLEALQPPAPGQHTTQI

Cc1ccc(-c2c(/C=C(\C#N)C(=O)NC(C)C)n(CCCO)c3ncnc(N)c23)cc1
Kd (STK16 (human)): 230 nM | Kd (MAP2K5 (human)): 2300 nM | kinase still bound, per cent of control [1]: 75% | Kd (RIPK2 (human)): 310 nM | Kd (PDGFRB (human)): 2800 nM | Kd (MAP3K1 (human)): 45 nM | Kd (RPS6KA6 KD2 (human)): 1.2 nM | residual activity (CDK4 CCND3 (human)): 95% | kinase still bound, per cent of control (PKN3 (M.tuberculosis)): 100% | Kd (RET (human)): 360 nM | residual activity (CDK4 CCND1 (human)): 100% | kinase still bound, per cent of control (CPK1 (P.falciparum)): 68%
